Experimental data as given in patent US10875875B2, “Propionic acid derivatives and methods of use thereof” (Aviara Pharmaceuticals, Inc., priority 2017, dated 2020).

Molecular target: α4β1 (Homo sapiens, UniProt P05556+P13612)
Experiment: α4β1 integrin inhibition, IC50
Assay type: binding
Details: read-out: α4β1 IC50

α4β1, sequence (P13612 34-1032): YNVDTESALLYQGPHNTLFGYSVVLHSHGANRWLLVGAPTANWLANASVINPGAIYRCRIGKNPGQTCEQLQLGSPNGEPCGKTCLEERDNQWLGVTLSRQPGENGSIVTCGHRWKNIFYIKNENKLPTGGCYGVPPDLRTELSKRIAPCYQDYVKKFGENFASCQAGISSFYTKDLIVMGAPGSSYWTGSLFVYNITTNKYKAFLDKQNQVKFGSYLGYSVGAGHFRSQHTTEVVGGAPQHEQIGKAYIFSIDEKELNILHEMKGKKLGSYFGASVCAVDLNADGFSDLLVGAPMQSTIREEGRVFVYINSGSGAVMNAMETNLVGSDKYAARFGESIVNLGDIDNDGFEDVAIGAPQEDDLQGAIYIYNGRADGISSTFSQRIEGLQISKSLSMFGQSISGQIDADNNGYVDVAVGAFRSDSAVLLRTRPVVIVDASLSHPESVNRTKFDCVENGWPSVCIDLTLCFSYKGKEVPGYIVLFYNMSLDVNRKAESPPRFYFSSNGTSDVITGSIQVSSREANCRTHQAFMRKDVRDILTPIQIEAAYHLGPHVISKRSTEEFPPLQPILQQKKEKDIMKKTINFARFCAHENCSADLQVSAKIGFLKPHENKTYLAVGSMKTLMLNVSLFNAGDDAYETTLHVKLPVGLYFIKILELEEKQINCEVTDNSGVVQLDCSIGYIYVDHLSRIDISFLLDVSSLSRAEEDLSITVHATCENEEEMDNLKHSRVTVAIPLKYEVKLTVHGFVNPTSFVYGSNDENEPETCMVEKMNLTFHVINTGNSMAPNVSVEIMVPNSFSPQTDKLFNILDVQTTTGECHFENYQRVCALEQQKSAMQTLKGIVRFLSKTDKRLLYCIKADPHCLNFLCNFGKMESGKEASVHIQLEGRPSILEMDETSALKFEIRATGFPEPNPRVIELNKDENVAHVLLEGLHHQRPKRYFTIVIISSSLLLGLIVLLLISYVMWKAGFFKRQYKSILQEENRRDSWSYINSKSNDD
α4β1, sequence (P05556 21-798): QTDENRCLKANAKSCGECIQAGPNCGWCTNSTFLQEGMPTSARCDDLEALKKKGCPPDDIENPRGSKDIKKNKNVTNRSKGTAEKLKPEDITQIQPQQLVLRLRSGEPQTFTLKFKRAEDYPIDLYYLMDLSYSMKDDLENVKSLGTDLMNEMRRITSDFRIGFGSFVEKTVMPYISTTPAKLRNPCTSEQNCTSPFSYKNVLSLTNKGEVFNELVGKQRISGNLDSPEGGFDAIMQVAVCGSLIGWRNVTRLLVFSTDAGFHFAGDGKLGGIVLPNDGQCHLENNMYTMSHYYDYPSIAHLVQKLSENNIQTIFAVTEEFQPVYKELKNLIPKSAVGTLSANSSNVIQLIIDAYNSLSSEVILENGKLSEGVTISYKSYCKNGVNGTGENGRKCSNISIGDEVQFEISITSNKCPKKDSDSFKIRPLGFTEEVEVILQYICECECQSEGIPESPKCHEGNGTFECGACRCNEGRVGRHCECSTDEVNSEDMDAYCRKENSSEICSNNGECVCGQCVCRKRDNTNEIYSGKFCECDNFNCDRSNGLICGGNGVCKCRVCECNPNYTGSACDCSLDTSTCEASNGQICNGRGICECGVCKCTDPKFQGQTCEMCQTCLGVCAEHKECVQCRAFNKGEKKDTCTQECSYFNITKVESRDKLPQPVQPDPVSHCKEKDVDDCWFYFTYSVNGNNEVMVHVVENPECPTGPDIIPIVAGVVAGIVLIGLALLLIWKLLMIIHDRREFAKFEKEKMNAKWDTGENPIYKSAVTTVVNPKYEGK

IC50 | Compound
< 0.02 µM | COc1ccc([C@H](CC(=O)O)NC(=O)Nc2c(O)ccn(C)c2=O)cc1-c1ccc(OC(F)(F)F)cc1 [1-536, sodium (S)-3-(6-methoxy-4′-(trifluoromethoxy)biphenyl-3-yl)-3-(3-(1-methyl-4-oxido-2-oxo-1,2-dihydropyridin-3-yl)ureido)propanoate]
< 0.02 µM | Cn1c(=O)c(NC(=O)N[C@@H](CC(=O)O)c2cccc(-c3ccc(F)cc3F)c2)c(O)c2sccc21 [1-515, sodium (S)-3-(2′,4′-difluorobiphenyl-3-yl)-3-(3-(4-methyl-7-oxido-5-oxo-4,5-dihydrothieno[3,2-b]pyridin-6-yl)ureido)propanoate]
< 0.2 µM | Cc1cn(C)c(=O)c(NC(=O)NC(CC(=O)O)c2ccc(=O)n(-c3ccccc3)c2)c1O (stereo not drawn) [1-463, sodium 3-(3-(1,5-dimethyl-4-oxido-2-oxo-1,2-dihydropyridin-3-yl)ureido)-3-(6-oxo-1-phenyl-1,6-dihydropyridin-3-yl)propanoate]
< 0.2 µM | Cc1cn(C)c(=O)c(NC(=O)NC(CC(=O)O)c2cccc(-c3cc(Cl)cc(Cl)c3)c2)c1O (stereo not drawn) [1-486, sodium 3-(3′,5′-dichlorobiphenyl-3-yl)-3-(3-(1,5-dimethyl-4-oxido-2-oxo-1,2-dihydropyridin-3-yl)ureido)propanoate]
< 0.2 µM | Cn1ccc(O)c(NC(=O)N[C@@H](CC(=O)O)c2ccc(-c3cccc(Cl)c3)s2)c1=O [1-619, sodium (S)-3-(5-(3-chlorophenyl)thiophen-2-yl)-3-(3-(1-methyl-4-oxido-2-oxo-1,2-dihydropyridin-3-yl)ureido)propanoate]
< 0.2 µM | CCn1cc(C)c(O)c(NC(=O)N[C@@H](CC(=O)O)c2cccc(-c3ccccc3C)c2)c1=O [1-443, sodium (S)-3-(3-(1-ethyl-5-methyl-4-oxido-2-oxo-1,2-dihydropyridin-3-yl)ureido)-3-(2′-methylbiphenyl-3-yl)propanoate]
< 0.02 µM | Cc1cc(-c2ccc(F)cc2F)cc([C@H](CC(=O)O)NC(=O)Nc2c(O)ccn(C)c2=O)c1 [1-574, sodium (S)-3-(2′,4′-difluoro-5-methylbiphenyl-3-yl)-3-(3-(1-methyl-4-oxido-2-oxo-1,2-dihydropyridin-3-yl)ureido)propanoate]
< 0.02 µM | COc1ccc([C@H](CC(=O)O)NC(=O)Nc2c(O)ccn(C)c2=O)cc1-c1ccccc1 [1-529, sodium (S)-3-(6-methoxybiphenyl-3-yl)-3-(3-(1-methyl-4-oxido-2-oxo-1,2-dihydropyridin-3-yl)ureido)propanoate]
< 0.02 µM | COc1cccc(-c2cc([C@H](CC(=O)O)NC(=O)Nc3c(O)ccn(C)c3=O)ccc2C)c1 [1-542, sodium (S)-3-(3′-methoxy-6-methylbiphenyl-3-yl)-3-(3-(1-methyl-4-oxido-2-oxo-1,2-dihydropyridin-3-yl)ureido)propanoate]
< 0.02 µM | Cc1cn(C)c(=O)c(NC(=O)NC(CC(=O)O)c2cccc(-c3ccccc3Cl)c2)c1O (stereo not drawn) [1-473, sodium 3-(2′-chlorobiphenyl-3-yl)-3-(3-(1,5-dimethyl-4-oxido-2-oxo-1,2-dihydropyridin-3-yl)ureido)propanoate]
< 0.02 µM | Cc1cc(-c2c(C)cccc2C)cc([C@H](CC(=O)O)NC(=O)Nc2c(O)ccn(C)c2=O)c1 [1-573, sodium (S)-3-(3-(1-methyl-4-oxido-2-oxo-1,2-dihydropyridin-3-yl)ureido)-3-(2′,5,6′-trimethylbiphenyl-3-yl)propanoate]
< 0.2 µM | Cc1cn(C)c(=O)c(NC(=O)NC(CC(=O)O)c2cccc(-c3ccc(F)c(Cl)c3)c2)c1O (stereo not drawn) [1-484, sodium 3-(3′-chloro-4′-fluorobiphenyl-3-yl)-3-(3-(1,5-dimethyl-4-oxido-2-oxo-1,2-dihydropyridin-3-yl)ureido)propanoate]
< 0.02 µM | COc1ccc([C@H](CC(=O)O)NC(=O)Nc2c(O)ccn(C)c2=O)cc1-c1cccc(OC(F)(F)F)c1 [1-535, sodium (S)-3-(6-methoxy-3′-(trifluoromethoxy)biphenyl-3-yl)-3-(3-(1-methyl-4-oxido-2-oxo-1,2-dihydropyridin-3-yl)ureido)propanoate]
< 0.02 µM | COc1ccc(-c2cccc([C@H](CC(=O)O)NC(=O)Nc3c(O)ccn(C)c3=O)c2)nn1 [1-640, sodium (S)-3-(3-(6-methoxypyridazin-3-yl)phenyl)-3-(3-(1-methyl-4-oxido-2-oxo-1,2-dihydropyridin-3-yl)ureido)propanoate]
< 0.02 µM | Cn1ccc(O)c(NC(=O)N[C@@H](CC(=O)O)c2cc(F)cc(-c3cccc(OC(F)(F)F)c3)c2)c1=O [1-607, sodium (S)-3-(5-fluoro-3′-(trifluoromethoxy)biphenyl-3-yl)-3-(3-(1-methyl-4-oxido-2-oxo-1,2-dihydropyridin-3-yl)ureido)propanoate]
< 0.02 µM | Cc1cn(C)c(=O)c(NC(=O)N[C@@H](CC(=O)O)c2cccc(-c3cc(F)ccc3F)c2)c1O [1-447, sodium (S)-3-(2′,5′-difluorobiphenyl-3-yl)-3-(3-(1,5-dimethyl-4-oxido-2-oxo-1,2-di hydropyridin-3-yl)ureido)propanoate]
< 0.02 µM | O=C(O)C[C@H](NC(=O)Nc1c(O)cc[nH]c1=O)c1cccc(-c2ccc(F)cc2F)c1 [1-494, sodium (S)-3-(2′,4′-difluorobiphenyl-3-yl)-3-(3-(4-oxido-2-oxo-1,2-dihydropyridin-3-yl)ureido)propanoate]
< 0.02 µM | COc1cc(-c2ccc(F)cc2F)cc([C@H](CC(=O)O)NC(=O)Nc2c(O)ccn(C)c2=O)c1 [1-566, sodium (S)-3-(2′,4′-difluoro-5-methoxybiphenyl-3-yl)-3-(3-(1-methyl-4-oxido-2-oxo-1,2-dihydropyridin-3-yl)ureido)propanoate]

The remaining lines, values behind:

Compound | IC50
Cc1cn(C)c(=O)c(NC(=O)NC(CC(=O)O)c2cccc(-c3ccc(Cl)cc3Cl)c2)c1O (stereo not drawn) [1-511, sodium 3-(2′,4′-dichlorobiphenyl-3-yl)-3-(3-(1,5-dimethyl-4-oxido-2-oxo-1,2-dihydropyridin-3-yl)ureido)propanoate] | < 0.2 µM
Cn1ccc(O)c(NC(=O)N[C@@H](CC(=O)O)c2cccc(-c3cccs3)c2)c1=O [1-532, sodium (S)-3-(3-(1-methyl-4-oxido-2-oxo-1,2-dihydropyridin-3-yl)ureido)-3-(3-(thiophen-2-yl)phenyl)propanoate] | < 0.02 µM
COc1ccccc1-c1cccc([C@H](CC(=O)O)NC(=O)Nc2c(O)c(C)cn(C)c2=O)c1 [1-456, sodium (S)-3-(3-(1,5-dimethyl-4-oxido-2-oxo-1,2-dihydropyridin-3-yl)ureido)-3-(2′-methoxybiphenyl-3-yl)propanoate] | < 0.2 µM
Cn1ccc(O)c(NC(=O)N[C@@H](CC(=O)O)c2cccc(-c3ccc(Cl)s3)c2)c1=O [1-538, sodium (S)-3-(3-(5-chlorothiophen-2-yl)phenyl)-3-(3-(1-methyl-4-oxido-2-oxo-1,2-dihydropyridin-3-yl)ureido)propanoate] | < 0.02 µM
COc1cccc(-c2cccc([C@H](CC(=O)O)NC(=O)Nc3c(O)cc(C)n(C)c3=O)c2)c1 [1-553, sodium (S)-3-(3-(1,6-dimethyl-4-oxido-2-oxo-1,2-dihydropyridin-3-yl)ureido)-3-(3′-methoxybiphenyl-3-yl)propanoate] | < 0.02 µM
Cc1ccc([C@H](CC(=O)O)NC(=O)Nc2c(O)c(C)cn(C)c2=O)cc1-c1ccccc1 [1-448, sodium (S)-3-(3-(1,5-dimethyl-4-oxido-2-oxo-1,2-dihydropyridin-3-yl)ureido)-3-(6-methylbiphenyl-3-yl)propanoate] | < 0.2 µM
Cn1ccc(O)c(NC(=O)N[C@@H](CC(=O)O)c2cccc(-c3ccccn3)c2)c1=O [1-639, sodium (S)-3-(3-(1-methyl-4-oxido-2-oxo-1,2-dihydropyridin-3-yl)ureido)-3-(3-(pyridin-2-yl)phenyl)propanoate] | < 0.02 µM
Cn1ccc(O)c(NC(=O)N[C@@H](CC(=O)O)c2ccc(-c3ccccc3)s2)c1=O [1-613, sodium (S)-3-(3-(1-methyl-4-oxido-2-oxo-1,2-dihydropyridin-3-yl)ureido)-3-(5-phenylthiophen-2-yl)propanoate] | < 0.02 µM
COc1ccc(-c2cccc([C@H](CC(=O)O)NC(=O)Nc3c(O)c(C)cn(C)c3=O)c2)cn1 [1-476, sodium (S)-3-(3-(1,5-dimethyl-4-oxido-2-oxo-1,2-dihydropyridin-3-yl)ureido)-3-(3-(6-methoxypyridin-3-yl)phenyl)propanoate] | < 0.02 µM
COc1ccc([C@H](CC(=O)O)NC(=O)Nc2c(O)c(C)cn(C)c2=O)cc1-c1ccccc1 [1-449, sodium (S)-3-(3-(1,5-dimethyl-4-oxido-2-oxo-1,2-dihydropyridin-3-yl)ureido)-3-(6-methoxybiphenyl-3-yl)propanoate] | < 0.2 µM
COc1cccc(-c2cc(OC)cc([C@H](CC(=O)O)NC(=O)Nc3c(O)cc(C)n(C)c3=O)c2)c1 [1-567, sodium (S)-3-(3′,5-dimethoxybiphenyl-3-yl)-3-(3-(1,6-dimethyl-4-oxido-2-oxo-1,2-dihydropyridin-3-yl)ureido)propanoate] | < 0.02 µM
COc1ccc(-c2c(C)cccc2C)cc1[C@H](CC(=O)O)NC(=O)Nc1c(O)ccn(C)c1=O [1-602, sodium (S)-3-(4-methoxy-2′,6′-dimethylbiphenyl-3-yl)-3-(3-(1-methyl-4-oxido-2-oxo-1,2-dihydropyridin-3-yl)ureido)propanoate] | < 0.02 µM
CCn1cc(C)c(O)c(NC(=O)NC(CC(=O)O)c2cccc(-c3ccc(Cl)c(Cl)c3)c2)c1=O (stereo not drawn) [1-480, sodium 3-(3′,4′-dichlorobiphenyl-3-yl)-3-(3-(1-ethyl-5-methyl-4-oxido-2-oxo-1,2-dihydropyridin-3-yl)ureido)propanoate] | < 0.2 µM
Cc1ccc([C@H](CC(=O)O)NC(=O)Nc2c(O)ccn(C)c2=O)cc1-c1c(C)cccc1C [1-545, sodium (S)-3-(3-(1-methyl-4-oxido-2-oxo-1,2-dihydropyridin-3-yl)ureido)-3-(2′,6,6′-trimethylbiphenyl-3-yl)propanoate] | < 0.02 µM
Cc1cn(C)c(=O)c(NC(=O)N[C@@H](CC(=O)O)c2ccc(-c3ccccc3)o2)c1O [1-482, sodium (S)-3-(3-(1,5-dimethyl-4-oxido-2-oxo-1,2-dihydropyridin-3-yl)ureido)-3-(5-phenylfuran-2-yl)propanoate] | < 0.2 µM
